# Measured values as given in patent publication US12202839B2, “In-flow photooxygenation of aminothienopyridinones generates PTP4A3 phosphatase inhibitors” (University of Virginia Patent Foundation, priority 2018, dated 2025).
# “Also recorded” adds a separate entry of the source.
# What was measured:
# OVCAR4 [1] = assay: Loss of spheroid viability after 48-hour exposure, preexisting spheroids, CellTiterGlo 3D; type: cell-based; conditions: Homo sapiens, OVCAR-4, 48 h, N=3, read-out: Cellular IC50 values for loss of spheroid viability after 48-hour exposure (μM ± S.E.M.)
# Hs578T [2] = assay: as above; type: cell-based; conditions: Homo sapiens, Hs-578T, N=3, read-out: Cellular IC50 values for loss of spheroid viability after 48-hour exposure (μM ± S.E.M.)
# MDA-MB-231 = assay: as above; type: cell-based; conditions: Homo sapiens, MDA-MB-231 spheroids, N=3, read-out: Cellular IC50 values for loss of spheroid viability after 48-hour exposure (μM ± S.E.M.)
# Kuramochi [3] = assay: as above; type: cell-based; conditions: Homo sapiens, N=3, read-out: Cellular IC50 values for loss of spheroid viability after 48-hour exposure (μM ± S.E.M.)
# [4] = molecular target: Recombinant human PTP4A3 phosphatase (Homo sapiens (Human), UniProt O75365); assay: In vitro inhibition of PTP4A3 phosphatase activity (automated enzymatic assay); type: biochemical; conditions: mean of N independent assays, 10-point concentration curves, six replicates; read-out: IC50 (nM) ± SEM
# [5] = molecular target: recombinant human His6-tagged PTP4A3 (Homo sapiens (Human), UniProt O75365); assay: In vitro biochemical analysis of PTP4A inhibition, DiFMUP substrate; conditions: for IC50: DiFMUP 12 μM, 25° C., 25 minutes, read-out: IC50 values for Compounds Inhibiting Activity of PTP4A Family Members (mean (nM) ± S.E.M.), PTP4A3; for preference among the PTP4A family members (PTP4A3 versus PTP4A1, PTP4A2), in words: comparison of the IC50 values of Table 4
# [6] = molecular target: recombinant human His6-tagged PTP4A1 (Homo sapiens (Human), UniProt Q93096); assay: as above; conditions: for IC50: DiFMUP 12 μM, 25° C., 25 minutes, read-out: IC50 values for Compounds Inhibiting Activity of PTP4A Family Members (mean (nM) ± S.E.M.), PTP4A1
# [7] = molecular target: recombinant human His6-tagged PTP4A2 (Homo sapiens (Human), UniProt Q12974); assay: as above; conditions: for IC50: DiFMUP 12 μM, 25° C., 25 minutes, read-out: IC50 values for Compounds Inhibiting Activity of PTP4A Family Members (mean (nM) ± S.E.M.), PTP4A2
# COV362-47R [8] = assay: Spheroid growth viability, CellTiterGlo 3D; type: cell-based; conditions: COV362-47R spheroid, 48 hour exposure, read-out: EC50 (mean μM ± SEM)
# COV362 [9] = assay: Spheroid growth viability, CellTiterGlo 3D; type: cell-based; conditions: 48 hour exposure, read-out: EC50 (mean μM ± SEM)
# MOLT4 (human TALL) = assay: Leukemia/lymphoma cell viability, Alamar blue; type: cell-based; conditions: MOLT-4, 48 h, read-out: EC50 (mean μM ± SEM)
# OVSAHO [10] = assay: Spheroid growth viability, CellTiterGlo 3D; type: cell-based; conditions: Homo sapiens, 48 h, read-out: EC50 (mean μM ± SEM)
# V581 [11] = assay: Spheroid growth viability, CellTiterGlo 3D; type: cell-based; conditions: 48 h, read-out: EC50 (mean μM ± SEM)
# MV-4-11 (human AML/ALL) = assay: Leukemia/lymphoma cell viability, Alamar blue; type: cell-based; conditions: MV4-11, 48 h, read-out: EC50 (mean μM ± SEM)
# OVCAR4 [12] = assay: Monolayer cancer cell viability, Alamar blue; type: cell-based; conditions: Homo sapiens, OVCAR-4, 48 h, read-out: EC50 (mean μM ± SEM)
# HL60 (human APML) = assay: Leukemia/lymphoma cell viability, Alamar blue; type: cell-based; conditions: HL-60, 48 h, read-out: EC50 (mean μM ± SEM)
# K562 (human CML) = assay: Leukemia/lymphoma cell viability, Alamar blue; type: cell-based; conditions: K562, 48 h, read-out: EC50 (mean μM ± SEM)
# RS4;11 (human BALL) = assay: Leukemia/lymphoma cell viability, Alamar blue; type: cell-based; conditions: RS4-11, 48 h, read-out: EC50 (mean μM ± SEM)
# OVSAHO [13] = assay: Monolayer cancer cell viability, Alamar blue; type: cell-based; conditions: Homo sapiens, OVSAHO, 48 h, read-out: EC50 (mean μM ± SEM)
# OVCAR4 [14] = assay: Spheroid growth viability, CellTiterGlo 3D; type: cell-based; conditions: Homo sapiens, OVCAR-4, 48 h, read-out: EC50 (mean μM ± SEM)
# Kasumi (human AML) = assay: Leukemia/lymphoma cell viability, Alamar blue; type: cell-based; conditions: 48 h, read-out: EC50 (mean μM ± SEM)
# [15] = test system: U937 (human Histiocytic lymphoma); assay: Leukemia/lymphoma cell viability, Alamar blue; type: cell-based; conditions: U-937, 48 h, read-out: EC50 (mean μM ± SEM)
# COV362-47R [16] = assay: Monolayer cancer cell viability, Alamar blue; type: cell-based; conditions: COV362-47R monolayer, 48-hour exposure, read-out: EC50 (mean μM ± SEM)
# COV362 [17] = assay: Monolayer cancer cell viability, Alamar blue; type: cell-based; conditions: 48-hour exposure, read-out: EC50 (mean μM ± SEM)
# Hs578T [18] = assay: Monolayer cancer cell viability, Alamar blue; type: cell-based; conditions: Homo sapiens, Hs-578T, 48 h, read-out: EC50 (mean μM ± SEM)
# V581 [19] = assay: Monolayer cancer cell viability, Alamar blue; type: cell-based; conditions: 48 h, read-out: EC50 (mean μM ± SEM)
# [20] = test system: HL60-VCR (drug resistant human APML); assay: Leukemia/lymphoma cell viability, Alamar blue; type: cell-based; conditions: HL60/VCR, 48 h, read-out: EC50 (mean μM ± SEM)
# Kuramochi [21] = assay: Spheroid growth viability, CellTiterGlo 3D; type: cell-based; conditions: 48 h, read-out: EC50 (mean μM ± SEM)
# C1498 (mouse AML) = assay: Leukemia/lymphoma cell viability, Alamar blue; type: cell-based; conditions: C1498, 48 h, read-out: EC50 (mean μM ± SEM)
# Sequence of recombinant human His6-tagged PTP4A1 (Q93096 whole entry): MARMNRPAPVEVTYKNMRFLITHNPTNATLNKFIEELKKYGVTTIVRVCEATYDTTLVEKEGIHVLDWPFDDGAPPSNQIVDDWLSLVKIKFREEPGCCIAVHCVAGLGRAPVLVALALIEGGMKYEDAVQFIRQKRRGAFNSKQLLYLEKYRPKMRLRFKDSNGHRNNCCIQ
# Sequence of recombinant human His6-tagged PTP4A2 (Q12974 whole entry): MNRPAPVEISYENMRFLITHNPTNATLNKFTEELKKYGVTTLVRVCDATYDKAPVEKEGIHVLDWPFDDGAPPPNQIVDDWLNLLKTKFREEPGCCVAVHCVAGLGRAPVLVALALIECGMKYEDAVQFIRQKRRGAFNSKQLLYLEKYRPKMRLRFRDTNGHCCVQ
# Sequence of recombinant human His6-tagged PTP4A3 (O75365 whole entry): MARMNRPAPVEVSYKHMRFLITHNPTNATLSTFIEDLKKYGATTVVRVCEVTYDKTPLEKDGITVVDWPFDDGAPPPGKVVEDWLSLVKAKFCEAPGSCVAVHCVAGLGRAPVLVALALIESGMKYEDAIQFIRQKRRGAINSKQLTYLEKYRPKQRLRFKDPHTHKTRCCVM
# Sequence of Recombinant human PTP4A3 phosphatase (O75365 whole entry): as above
structure (smiles),measurement,setting,value
"N=C1C(=O)NC(=O)c2cc(-c3ccccc3)sc21 [Compound 2, 7-Imino-2-phenylthieno[3,2-c]pyridine-4,6(5H,7H)-dione, reference compound]",IC50,OVCAR4 [1],4.42 µM
same,IC50,Hs578T [2],8.48 ± 2.38 µM
same,IC50,MDA-MB-231,32.7 ± 7.02 µM
same,IC50,Kuramochi [3],13.2 ± 0.65 µM
"N=C1C(=O)NC(=O)c2cc(-c3ccc(Cl)cc3)sc21 [Compound 9b, 2-(4-Chlorophenyl)-7-iminothieno[3,2-c]pyridine-4,6(5H,7H)-dione]",IC50,[4],41.9 ± 1.15 nM
"N=C1C(=O)NC(=O)c2cc(-c3ccc(F)cc3)sc21 [Compound 9d, 2-(4-Fluorophenyl)-7-iminothieno[3,2-c]pyridine-4,6(5H,7H)-dione]",IC50,[4],71 ± 2.54 nM
"CC(C)(C)C(=O)Oc1ccc(-c2cc3c(s2)C(=N)C(=O)NC3=O)cc1 [Compound 9e, 4-(7-Imino-4,6-dioxo-4,5,6,7-tetrahydrothieno[3,2-c]pyridin-2-yl)phenyl pivalate]",IC50,[4],256 ± 12.3 nM
"N=C1C(=O)NC(=O)c2cc(-c3cccc(C(F)(F)F)c3)sc21 [Compound 9g, 7-Imino-2-(3-(trifluoromethyl)phenyl)thieno[3,2-c]pyridine-4,6(5H,7H)-dione]",IC50,[4],193 ± 6.06 nM
"N=C1C(=O)NC(=O)c2cc(-c3cccc(Cl)c3)sc21 [Compound 9h, 2-(3-Chlorophenyl)-7-iminothieno[3,2-c]pyridine-4,6(5H,7H)-dione]",IC50,[4],65.7 ± 4.13 nM
"Cc1cccc(-c2cc3c(s2)C(=N)C(=O)NC3=O)c1 [Compound 9i, 7-Imino-2-(m-tolyl)thieno[3,2-c]pyridine-4,6(5H,7H)-dione]",IC50,[4],53.4 ± 1.46 nM
"COc1cccc(-c2cc3c(s2)C(=N)C(=O)NC3=O)c1 [Compound 9j, 2-(3-Methoxyphenyl)-7-iminothieno[3,2-c]pyridine-4,6(5H,7H)-dione]",IC50,[4],47.6 ± 2.68 nM
"N=C1C(=O)NC(=O)c2cc(-c3ccccc3Cl)sc21 [Compound 9k, 2-(2-Chlorophenyl)-7-iminothieno[3,2-c]pyridine-4,6(5H,7H)-dione]",IC50,[5],36.1 nM
same,"preference among the PTP4A family members (PTP4A3 versus PTP4A1, PTP4A2), in words",[5],more pronounced preference for PTP4A3
same,IC50,[6],49 ± 5 nM
same,IC50,[4],36.1 ± 1.43 nM
same,IC50,OVCAR4 [1],12.3 ± 2.26 µM
same,IC50,Hs578T [2],14.4 ± 4.91 µM
same,IC50,MDA-MB-231,> 50 µM
same,IC50,Kuramochi [3],> 50 µM
"N=C1C(=O)NC(=O)c2cc(-c3ccccc3F)sc21 [Compound 9l, 2-(2-Fluorophenyl)-7-iminothieno[3,2-c]pyridine-4,6(5H,7H)-dione]",IC50,[4],53.4 ± 1.46 nM
"N=C1C(=O)NC(=O)c2cc(-c3ccc(F)c(Cl)c3)sc21 [Compound 9n, 2-(3-Chloro-4-fluorophenyl)-7-iminothieno[3,2-c]pyridine-4,6(5H,7H)-dione]",IC50,[4],67.7 ± 3 nM
"N=C1C(=O)NC(=O)c2cc(-c3ccc(OCCN4CCOCC4)cc3)sc21 [Compound 9o, 7-Imino-2-(4-(2-morpholinoethoxy)phenyl)thieno[3,2-c]pyridine-4,6(5H, 7H)-dione]",IC50,[7],73.9 ± 10 nM
same,IC50,[5],98.2 nM
same,"preference among the PTP4A family members (PTP4A3 versus PTP4A1, PTP4A2), in words",[5],little preference
same,IC50,[6],43.2 ± 8.5 nM
same,IC50,[4],98.2 ± 2.49 nM
same,IC50,OVCAR4 [1],19.6 ± 4.66 µM
same,IC50,Hs578T [2],12 ± 3.84 µM
same,IC50,MDA-MB-231,> 50 µM
same,IC50,Kuramochi [3],> 50 µM
"CN1C(=O)C(=N)c2sc(-c3ccccc3)cc2C1=O [Compound 9p, 7-Imino-5-methyl-2-phenylthieno[3,2-c]pyridine-4,6(5H,7H)-dione]",IC50,[5],86 nM
same,"preference among the PTP4A family members (PTP4A3 versus PTP4A1, PTP4A2), in words",[5],more pronounced preference for PTP4A3
same,IC50,[6],133 ± 31.7 nM
same,IC50,[4],48.9 ± 12 nM
same,IC50,OVCAR4 [1],11.5 ± 2.38 µM
same,IC50,Hs578T [2],10.1 ± 1.93 µM
same,IC50,MDA-MB-231,61.5 ± 9.66 µM
same,IC50,Kuramochi [3],34.1 ± 8.6 µM
"N=C1C(=O)N(CC2CC2)C(=O)c2cc(-c3ccccc3)sc21 [Compound 9q, 5-(Cyclopropylmethyl)-7-imino-2-phenylthieno[3,2-c]pyridine-4,6(5H,7H)-dione]",IC50,[4],85.7 ± 5.96 nM
N=C1C(=O)NC(=O)c2cc(-c3ccc(OCCCCNC(=O)CC45CC6CC(CC(C6)C4)C5)cc3)sc21 [EJR-876-35],EC50,COV362-47R [8],> 50 µM
same,EC50,COV362 [9],16 ± 3.7 µM
same,EC50,MOLT4 (human TALL),1 ± 0.1 µM
same,EC50,OVSAHO [10],21.1 ± 2.8 µM
same,EC50,V581 [11],44.4 µM
same,EC50,MV-4-11 (human AML/ALL),4.5 ± 1.8 µM
same,EC50,OVCAR4 [12],15.5 ± 4.7 µM
same,EC50,HL60 (human APML),1.6 ± 0.2 µM
same,EC50,K562 (human CML),25.6 ± 2.8 µM
same,EC50,RS4;11 (human BALL),2.2 ± 0.4 µM
same,EC50,OVSAHO [13],18.8 ± 2.2 µM
same,EC50,OVCAR4 [14],16.7 ± 1.9 µM
same,EC50,Kasumi (human AML),4.3 ± 1.3 µM
same,EC50,[15],6.87 ± 0.4 µM
same,EC50,COV362-47R [16],25.2 ± 6.2 µM
same,EC50,COV362 [17],25.7 ± 5.3 µM
same,EC50,Hs578T [18],6.2 µM
same,EC50,V581 [19],> 50 µM
same,EC50,[20],17.7 ± 3.8 µM
same,EC50,Kuramochi [21],> 50 µM
same,EC50,C1498 (mouse AML),1.2 ± 0.2 µM
"O=c1[nH]c(=O)c2cc(-c3ccccc3)sc2[nH]1 [JMS-038, 6-phenylthieno[2,3-d]pyrimidine-2,4(1H,3H)-dione, reference compound]",IC50,[7],> 1000 nM
same,inhibition of PTP4A2 (in words),"[7]; DiFMUP, 25-minute incubation",inactive
same,IC50,[5],> 1000 nM
same,inhibition of PTP4A3 (in words),"[5]; DiFMUP, 25-minute incubation",failed to inhibit; also recorded: inactive
same,IC50,[6],> 1000 nM
same,inhibition of PTP4A1 (in words),"[6]; DiFMUP, 25-minute incubation",inactive
same,IC50,OVCAR4 [1],> 50 µM
same,IC50,Hs578T [2],> 50 µM
same,IC50,MDA-MB-231,> 50 µM
same,IC50,Kuramochi [3],> 50 µM
CN1C(=O)C(=O)c2sc(-c3ccccc3)cc2C1=O [NRT-892-04],IC50,[4],32.2 ± 3.52 nM
